Data as given in patent US7186831B2, “5-halo-2-alkyl[1,2,4]triazolo[1,5-a]pyrimidin-7-amines” (priority 2001, dated 2007).

test: log P by HPLC; assay type: physicochemical; conditions: HPLC, gradient method, acetonitrile/0.1% aqueous phosphoric acid; EEC directive 79/831 Annex V. A8

logP	SMILES
1.46	CN(C)C1CCN(c2c(-c3ccc(F)cc3F)c(Cl)nc3nc(C4CC4)nn23)C1 (centres unmarked) [compound 605]
3.36	Fc1ccc(-c2c(Cl)nc3nc(C4CC4)nn3c2N2CCCC2)c(F)c1 [compound 606]
2.29	OC1CCN(c2c(-c3ccc(F)cc3F)c(Cl)nc3nc(C4CC4)nn23)CC1 [compound 607]
3.72	Fc1ccc(-c2c(Cl)nc3nc(C4CC4)nn3c2N2CC=CCC2)c(F)c1 [compound 608]
3.22	Fc1ccc(-c2c(Cl)nc3nc(C4CC4)nn3c2N2CCC3(CC2)OCCO3)c(F)c1 [compound 609]
4.72	CC1CC(C)CN(c2c(-c3ccc(F)cc3F)c(Cl)nc3nc(C4CC4)nn23)C1 (centres unmarked) [compound 610]
4.3	CC1CCCCN1c1c(-c2ccc(F)cc2F)c(Cl)nc2nc(C3CC3)nn12 (centres unmarked) [compound 611]
4.37	CC1CCCN(c2c(-c3ccc(F)cc3F)c(Cl)nc3nc(C4CC4)nn23)C1 (centres unmarked) [compound 612]
4.41	CC1CCN(c2c(-c3ccc(F)cc3F)c(Cl)nc3nc(C4CC4)nn23)CC1 [compound 613]
2.57	OC1CCCN(c2c(-c3ccc(F)cc3F)c(Cl)nc3nc(C4CC4)nn23)C1 (centres unmarked) [compound 614]
4.67	CC1(C)CCN(c2c(-c3ccc(F)cc3F)c(Cl)nc3nc(C4CC4)nn23)CC1 [compound 615]
3.07	COCCNc1c(-c2ccc(F)cc2Cl)c(Cl)nc2nc(C3CC3)nn12 [compound 616]
4.72	CC1CCCCN1c1c(-c2ccc(F)cc2Cl)c(Cl)nc2nc(C3CC3)nn12 (centres unmarked) [compound 617]
4.82	CC1CCN(c2c(-c3ccc(F)cc3Cl)c(Cl)nc3nc(C4CC4)nn23)CC1 [compound 618]
3.29	CN(C)Nc1c(-c2ccc(F)cc2Cl)c(Cl)nc2nc(C3CC3)nn12 [compound 619]
3.81	CC(NNc1c(-c2ccc(F)cc2Cl)c(Cl)nc2nc(C3CC3)nn12)C1CC1 (centres unmarked) [compound 620]
3.9	CC(C)CNc1c(-c2ccc(F)cc2Cl)c(Cl)nc2nc(C3CC3)nn12 [compound 621]
4.37	CC(C)(C)CNc1c(-c2ccc(F)cc2Cl)c(Cl)nc2nc(C3CC3)nn12 [compound 622]
3.9	CCC(C)Nc1c(-c2ccc(F)cc2Cl)c(Cl)nc2nc(C3CC3)nn12 (centres unmarked) [compound 623]
4.13	Fc1ccc(-c2c(Cl)nc3nc(C4CC4)nn3c2NC2CCCC2)c(Cl)c1 [compound 624]

logP	SMILES
3.63	Fc1ccc(-c2c(Cl)nc3nc(C4CC4)nn3c2NCC2CC2)c(Cl)c1 [compound 625]
3.59	C=C(C)CNc1c(-c2ccc(F)cc2Cl)c(Cl)nc2nc(C3CC3)nn12 [compound 626]
4.51	CC(C)CN(C)c1c(-c2ccc(F)cc2Cl)c(Cl)nc2nc(C3CC3)nn12 [compound 627]
3.46	COCCN(C)c1c(-c2ccc(F)cc2Cl)c(Cl)nc2nc(C3CC3)nn12 [compound 628]
4.41	C=C(C)CN(C)c1c(-c2ccc(F)cc2Cl)c(Cl)nc2nc(C3CC3)nn12 [compound 629]
4.77	C=C(C)CN(CC)c1c(-c2ccc(F)cc2Cl)c(Cl)nc2nc(C3CC3)nn12 [compound 630]
3.81	CCN(CCOC)c1c(-c2ccc(F)cc2Cl)c(Cl)nc2nc(C3CC3)nn12 [compound 631]
4.13	CCN(CC)c1c(-c2ccc(F)cc2Cl)c(Cl)nc2nc(C3CC3)nn12 [compound 632]
3.72	Fc1ccc(-c2c(Cl)nc3nc(C4CC4)nn3c2N2CCCC2)c(Cl)c1 [compound 634]
4.37	Fc1ccc(-c2c(Cl)nc3nc(C4CC4)nn3c2N2CCCCC2)c(Cl)c1 [compound 635]
3.18	Fc1ccc(-c2c(Cl)nc3nc(C4CC4)nn3c2N2CCOCC2)c(Cl)c1 [compound 636]
4.61	CC(C)CC(C)Nc1c(-c2ccc(F)cc2Cl)c(Cl)nc2nc(C3CC3)nn12 (centres unmarked) [compound 637]
3.37	Fc1ccc(-c2c(Cl)nc3nc(C4CC4)nn3c2NCC(F)(F)F)c(Cl)c1 [compound 638]
4.23	Fc1ccc(-c2c(Cl)nc3nc(C4CC4)nn3c2N2CCCC2C(F)(F)F)c(Cl)c1 (centres unmarked) [compound 639]
4.06	C=C(C)CN(CC)c1c(-c2ccc(F)cc2Cl)c(Cl)nc2nc(C)nn12 [compound 643]
3.38	CC(C)CNc1c(-c2ccc(F)cc2F)c(Cl)nc2nc(C3CC3)nn12 [compound 644]
3.6	CCCCNc1c(-c2ccc(F)cc2F)c(Cl)nc2nc(C3CC3)nn12 [compound 645]
4	CC(C)(C)CNc1c(-c2ccc(F)cc2F)c(Cl)nc2nc(C3CC3)nn12 [compound 646]
3.57	CCC(C)Nc1c(-c2ccc(F)cc2F)c(Cl)nc2nc(C3CC3)nn12 (centres unmarked) [compound 647]
3.25	Fc1ccc(-c2c(Cl)nc3nc(C4CC4)nn3c2NCCC(F)(F)F)c(F)c1 [compound 648]

logP	SMILES
3.2	CCCNc1c(-c2ccc(F)cc2F)c(Cl)nc2nc(C3CC3)nn12 [compound 649]
3.76	Fc1ccc(-c2c(Cl)nc3nc(C4CC4)nn3c2NC2CCCC2)c(F)c1 [compound 650]
3.2	CC(C)Nc1c(-c2ccc(F)cc2F)c(Cl)nc2nc(C3CC3)nn12 [compound 651]
4.02	Fc1ccc(-c2c(Cl)nc3nc(C4CC4)nn3c2NC2CCCCC2)c(F)c1 [compound 652]
4.84	CC(Nc1c(-c2ccc(F)cc2F)c(Cl)nc2nc(C3CC3)nn12)C1CCCCC1 (centres unmarked) [compound 653]
2.75	COCCNc1c(-c2ccc(F)cc2F)c(Cl)nc2nc(C3CC3)nn12 [compound 654]
2.95	Fc1ccc(-c2c(Cl)nc3nc(C4CC4)nn3c2NC2CC2)c(F)c1 [compound 655]
3.26	Fc1ccc(-c2c(Cl)nc3nc(C4CC4)nn3c2NCC2CC2)c(F)c1 [compound 656]
3.22	C=C(C)CNc1c(-c2ccc(F)cc2F)c(Cl)nc2nc(C3CC3)nn12 [compound 657]
3.98	Fc1ccc(-c2c(Cl)nc3nc(C4CC4)nn3c2NC2CCCC(C(F)(F)F)C2)c(F)c1 (centres unmarked) [compound 658]
3.93	Fc1ccc(-c2c(Cl)nc3nc(C4CC4)nn3c2NC2CCC(C(F)(F)F)CC2)c(F)c1 (centres unmarked) [compound 659]
4.24	CC(C)CC(C)Nc1c(-c2ccc(F)cc2F)c(Cl)nc2nc(C3CC3)nn12 (centres unmarked) [compound 660]
1.56	CN(C)CCN(C)c1c(-c2ccc(F)cc2F)c(Cl)nc2nc(C3CC3)nn12 [compound 661]
3.21	C#CCN(C)c1c(-c2ccc(F)cc2F)c(Cl)nc2nc(C3CC3)nn12 [compound 662]
3.1	CN(CC1OCCO1)c1c(-c2ccc(F)cc2F)c(Cl)nc2nc(C3CC3)nn12 [compound 663]
3.61	C=CCN(C)c1c(-c2ccc(F)cc2F)c(Cl)nc2nc(C3CC3)nn12 [compound 664]
1.61	CN(C)CCCN(C)c1c(-c2ccc(F)cc2F)c(Cl)nc2nc(C3CC3)nn12 [compound 665]
3.24	COC(CN(C)c1c(-c2ccc(F)cc2F)c(Cl)nc2nc(C3CC3)nn12)OC [compound 666]
3.63	CN(Cc1ccco1)c1c(-c2ccc(F)cc2F)c(Cl)nc2nc(C3CC3)nn12 [compound 667]
